# Source: publication PMC9409351, “Differential Ganglioside and Cholesterol Depletion by Various Cyclodextrin Derivatives and Their Effect on Synaptosomal Glutamate Release” (International Journal of Molecular Sciences, 2022)
# pIC50: −log10 of the molar value. Read-outs that look alike come from different tables or passages of the source.
# How the values were obtained:
# [1] = tested on: gangliosides (GM1, GD1a, GD1b, GT1b, GQ1b) of rat cerebral synaptosomes; assay: Ganglioside depletion from synaptosomes, remaining content by capillary electrophoresis; type: cell-based; settings: for pIC50: rat cerebral synaptosomes, 40 min exposure
# Description: Adult male Wistar rats purchased from Toxi-Coop Ltd. (Budapest, Hungary) were used in the experiments. Cerebral synaptosomes were prepared according to Modi and co-workers with the following modifications. Animals were decapitated and the brain was removed rapidly. Isotonic sucrose buffer (0.32 M sucrose, 4 mM HEPES-NaOH, pH 7.4) was used to homogenize the cerebrum with a Potter S Homogenizer (B. Braun, Melsungen, Germany) with 15 strokes at 1000 rpm. The homogenate was centrifuged (1500× g, 10 min, 4 °C) and the pellet was resuspended in sucrose buffer and centrifuged with the same parameters again. The two supernatants were combined and centrifuged (20,000× g, 10 min, 4 °C) to pellet the crude synaptosomes. The resulting supernatant was discarded and the pellet was washed again with an equal volume of sucrose buffer and then pelleted by centrifugation (20,000× g, 10 min, 4 °C). Synaptosomes were stored frozen using cryopreservation buffer and the slow freezing method to preserve their physiological state and integrity. Briefly, synaptosome pellets were resuspended in isotonic sucrose buffer containing 10% DMSO (v/v) and 10% FBS (v/v). To slow down the freezing process at −80 °C, synaptosomes were placed in a 3 cm thick-walled polystyrene box with a lid. Synaptosomes were stored at −80 °C until use. Immediately prior to the experiments, synaptosomes were rapidly thawed in a 37 °C water bath and pelleted by centrifugation (20,000× g, 10 min, 4 °C) to remove the cryopreservation buffer. The pellet was resuspended in isotonic HEPES-glucose buffer (10 mM HEPES-NaOH, 130 mM NaCl, 5.4 mM KCl, 1.3 mM CaCl2, 0.9 mM MgCl2, 5.5 mM glucose, pH 7.4) and aliquoted according to the experimental design.
# For all types of experiments, except for the glutamate release measurements, vehicle-treated (control) and CD-treated synaptosomes were incubated in 500 μL HEPES-glucose buffer with or without CDs, respectively, for 40 min at 37 °C. […] After incubation, the synaptosomes were centrifuged (20,000× g, 5 min, 4 °C) and used immediately for further analysis. A slightly different incubation method used in the glutamate release measurements is described in the corresponding section. Across all types of experiments, osmolarities of the CD solutions were adjusted and they were between 290 and 310 mOsm. At least three parallel measurements were carried out.
# The major neuronal ganglioside (GM1, GD1a, GD1b, GT1b, GQ1b) content of the rat cerebral synaptosome samples were measured by our previously published validated method. Briefly, after the CD treatments, gangliosides were extracted from 10 mg synaptosomes by liquid–liquid extraction. Ganglioside extracts were evaporated to dryness under a gentle stream of nitrogen (Zymark TurboVap LV, Hopkinton, MA, USA) in a 37 °C water bath. The dry ganglioside extract yielded from 10 mg synaptosomes was resuspended in 60 µL water, and centrifuged (20,000× g, 5 min, 4 °C) to remove the precipitate and the supernatant was analyzed by CE.
# Ganglioside analysis was performed on a P/ACE MDQ capillary electrophoresis system (Beckman Coulter Inc., Brea, CA, USA) with UV detection at 200 nm. Uncoated fused silica capillaries with 75 µm internal diameter, […], respectively (Agilent Technologies, Santa Clara, CA, USA), were used. Separation was achieved by applying +25 kV voltage in a separation buffer containing 20 mM RAMEA and 100 mM sodium borate at pH 10.0. Ganglioside depletion in the CD-treated synaptosomes was calculated as the percentage of the ganglioside content of the vehicle-treated synaptosomes.
# Data were analyzed by GraphPad Prism 8 (GraphPad Software, La Jolla, CA, USA). Concentration–response curves were constructed by the nonlinear regression method. One-way ANOVA followed by Bonferroni’s post hoc test was used for the data analysis in the case of the glutamate release experiments. […]
# [2] = tested on: rat cerebral synaptosomes; assay: Resazurin reduction viability assay; type: cell-based; settings: for pIC50 / Concentration with significant decrease in viability / metabolic activity: 40 min exposure; for pIC50: percentage of vehicle-treated synaptosomes; for Concentration with significant decrease in viability / metabolic activity: resazurin reduction
# Description: Adult male Wistar rats purchased from Toxi-Coop Ltd. (Budapest, Hungary) were used in the experiments. Cerebral synaptosomes were prepared according to Modi and co-workers with the following modifications. Animals were decapitated and the brain was removed rapidly. Isotonic sucrose buffer (0.32 M sucrose, 4 mM HEPES-NaOH, pH 7.4) was used to homogenize the cerebrum with a Potter S Homogenizer (B. Braun, Melsungen, Germany) with 15 strokes at 1000 rpm. The homogenate was centrifuged (1500× g, 10 min, 4 °C) and the pellet was resuspended in sucrose buffer and centrifuged with the same parameters again. The two supernatants were combined and centrifuged (20,000× g, 10 min, 4 °C) to pellet the crude synaptosomes. […] Synaptosomes were stored frozen using cryopreservation buffer and the slow freezing method to preserve their physiological state and integrity. Briefly, synaptosome pellets were resuspended in isotonic sucrose buffer containing 10% DMSO (v/v) and 10% FBS (v/v). To slow down the freezing process at −80 °C, synaptosomes were placed in a 3 cm thick-walled polystyrene box with a lid. Synaptosomes were stored at −80 °C until use. Immediately prior to the experiments, synaptosomes were rapidly thawed in a 37 °C water bath and pelleted by centrifugation (20,000× g, 10 min, 4 °C) to remove the cryopreservation buffer. […] For all types of experiments, except for the glutamate release measurements, vehicle-treated (control) and CD-treated synaptosomes were incubated in 500 μL HEPES-glucose buffer with or without CDs, respectively, for 40 min at 37 °C. […] After incubation, the synaptosomes were centrifuged (20,000× g, 5 min, 4 °C) and used immediately for further analysis. A slightly different incubation method used in the glutamate release measurements is described in the corresponding section. Across all types of experiments, osmolarities of the CD solutions were adjusted and they were between 290 and 310 mOsm. At least three parallel measurements were carried out. Viability of the rat cerebral synaptosomes was measured by the Resazurin Cell Viability Kit (Cell Signaling Technology Inc., Danvers, MA, USA) with minor modifications. The assay was based on the reduction in the nonfluorescent resazurin to highly fluorescent resorufin by intracellular dehydrogenase enzymes. Briefly, after CD treatments, 2 mg of the synaptosomes were centrifuged (20,000× g, 5 min, 4 °C) and the supernatant was discarded. […] After 25 min of incubation, synaptosomes were centrifuged (20,000× g, 5 min, 4 °C). Fluorescence of the supernatant was measured with a Varioskan LUX multimode microplate reader (Thermo Fisher Scientific) at 530/590 nm. Viability of the CD-treated synaptosomes was calculated as the percentage of vehicle-treated control synaptosomes.
# [3] = total = sum of individual gangliosides, read-out: Total ganglioside depletion IC50
"pIC50 ([1]; 40 min, read-out: GD1a depletion IC50)","pIC50 ([1]; 40 min, read-out: GD1b depletion IC50)","pIC50 ([1]; 40 min, read-out: GM1 depletion IC50)","pIC50 ([1]; 40 min, read-out: GQ1b depletion IC50)","pIC50 ([1]; 40 min, read-out: GT1b depletion IC50)","pIC50 ([1]; 40 min, total = sum of individual gangliosides, read-out: Total ganglioside depletion IC50)",Molecule,Ganglioside extraction at 10 mM ([1]; 10 mM),Ganglioside extraction at 30 mM ([1]; 30 mM),pIC50 ([1]; read-out: GD1a depletion IC50),pIC50 ([1]; read-out: GD1b depletion IC50),pIC50 ([1]; read-out: GM1 depletion IC50),pIC50 ([1]; read-out: GQ1b depletion IC50),pIC50 ([1]; read-out: GT1b depletion IC50),"pIC50 [1, 3]",Viability at 60 mM ([2]; 60 mM),pIC50 [2],Concentration with significant decrease in viability / metabolic activity [2],Ganglioside loss at 50% cholesterol depleting concentration ([1]; at 50% cholesterol depleting concentration),"pIC50 ([2]; Rattus norvegicus, 40 min)",Ganglioside extraction at highest examined concentration ([1]; 100 mM)
,,,,,,"COC[C@H]1O[C@@H]2O[C@H]3[C@H](O)[C@@H](OC)[C@@H](O[C@H]4[C@H](O)[C@@H](OC)[C@@H](O[C@H]5[C@H](O)[C@@H](OC)[C@@H](O[C@H]6[C@H](O)[C@@H](OC)[C@@H](O[C@H]7[C@H](O)[C@@H](OC)[C@@H](O[C@H]8[C@H](O)[C@@H](OC)[C@@H](O[C@H]1[C@H](O)[C@H]2OC)O[C@@H]8COC)O[C@@H]7COC)O[C@@H]6COC)O[C@@H]5COC)O[C@@H]4COC)O[C@@H]3COC [DIMEB, heptakis(2,6-di-O-methyl)-beta-cyclodextrin]",approximately 50%,Nearly total extraction,2.01,1.84,1.82,1.94,2.06,1.98,total loss of viability,1.58,higher than 10 mM,,,
1.08,1.06,1.09,1.07,1.10,1.08,"CC(O)COC[C@H]1O[C@@H]2O[C@H]3[C@H](O)[C@@H](O)[C@@H](O[C@H]4[C@H](O)[C@@H](O)[C@@H](O[C@H]5[C@H](O)[C@@H](O)[C@@H](O[C@H]6[C@H](O)[C@@H](O)[C@@H](O[C@H]7[C@H](O)[C@@H](O)[C@@H](O[C@H]8[C@H](O)[C@@H](O)[C@@H](O[C@H]1[C@H](O)[C@H]2O)O[C@@H]8COCC(C)O)O[C@@H]7COCC(C)O)O[C@@H]6COCC(C)O)O[C@@H]5COCC(C)O)O[C@@H]4COCC(C)O)O[C@@H]3COCC(C)O (stereo partly drawn) [HPBCD, (2-hydroxypropyl)-beta-cyclodextrin]",,,,,,,,,,,100000 µM,~ 5%,< 1.00,
,,,,,,(2-hydroxypropyl)-alpha-cyclodextrin [HPACD],,,1.14,1.04,1.06,1.21,,1.07,,,,,,~ 60%
,,,,,,randomly methylated alpha-cyclodextrin [RAMEA],,,1.60,1.58,1.54,1.52,1.62,1.59,,~1.05,100000 µM,,,
